Source: patent publication US10705101B2, “Determination of the unbound free fatty acid profiles in biological and industrial specimens” (priority 2013, dated 2020)

Target: human serum albumin (Homo sapiens, UniProt P02768)
Assay: FFAu profile in artificial plasma (FFA mixed with fatty acid free human serum albumin)
Assay type: binding
Details: artificial plasma: defined FFA mix with fatty acid free HSA in Measuring buffer
From the text: To determine if the low unbound POA levels were due to an interaction with some component of the blood sample matrix an artificial plasma was generated by mixing well defined amounts of the FFA used in Table 4 to fatty acid free human serum albumin in Measuring buffer.

Chain of human serum albumin (P02768 25-609): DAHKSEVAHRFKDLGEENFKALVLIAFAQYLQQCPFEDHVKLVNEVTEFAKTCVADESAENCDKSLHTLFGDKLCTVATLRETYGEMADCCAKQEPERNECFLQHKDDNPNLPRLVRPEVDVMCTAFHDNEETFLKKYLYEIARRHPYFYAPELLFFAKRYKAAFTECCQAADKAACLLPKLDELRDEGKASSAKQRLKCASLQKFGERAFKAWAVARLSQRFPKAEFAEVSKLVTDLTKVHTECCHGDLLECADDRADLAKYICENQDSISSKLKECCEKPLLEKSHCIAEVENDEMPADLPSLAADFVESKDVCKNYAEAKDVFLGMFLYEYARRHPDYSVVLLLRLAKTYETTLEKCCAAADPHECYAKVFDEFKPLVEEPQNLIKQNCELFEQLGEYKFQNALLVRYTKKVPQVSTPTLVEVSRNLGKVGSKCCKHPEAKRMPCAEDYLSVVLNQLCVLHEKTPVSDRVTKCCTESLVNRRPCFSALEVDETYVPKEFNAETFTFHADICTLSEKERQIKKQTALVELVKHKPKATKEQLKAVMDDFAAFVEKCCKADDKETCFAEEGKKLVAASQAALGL

Compound: CCCCCC/C=C\CCCCCCCC(=O)O [POA, palmitoleate]
- % FFAu: 16.9%
